According to the OPERA property sets (Mansouri et al. 2018):

logP | Structure (SMILES)
2.64 | CC(C)OC(=O)C=Cc1ccc([N+](=O)[O-])o1
3 | COC(=O)C(=Cc1ccc(I)o1)[N+](=O)[O-]
2.1 | CCOC(=O)C=Cc1ccc([N+](=O)[O-])o1
3.14 | CC(C)COC(=O)C=Cc1ccc([N+](=O)[O-])o1
1.87 | COC(=O)C(=Cc1ccc(C(=O)OC)o1)[N+](=O)[O-]
1.61 | C=Cc1ccc([N+](=O)[O-])o1
1.88 | O=[N+]([O-])c1ccc(C=CS(=O)(=O)c2ccccc2)o1
1.39 | CCNC(=O)C=Cc1ccc([N+](=O)[O-])o1
3.06 | CC(C)(C)OC(=O)C=Cc1ccc([N+](=O)[O-])o1
0.98 | CNC(=O)C=Cc1ccc([N+](=O)[O-])o1
2.36 | CCCCNC(=O)C=Cc1ccc([N+](=O)[O-])o1
2.44 | COC(=O)C(=Cc1ccc(C)o1)[N+](=O)[O-]
1.65 | COC(=O)C=Cc1ccc([N+](=O)[O-])o1
2.74 | COC(=O)C(=Cc1ccc(Br)o1)[N+](=O)[O-]
2.33 | CC(C)(C)NC(=O)C=Cc1ccc([N+](=O)[O-])o1
2.5 | CCOC(=O)C(=Cc1ccc([N+](=O)[O-])o1)C(=O)OCC
2.28 | CCC(C)NC(=O)C=Cc1ccc([N+](=O)[O-])o1 (stereo unspecified)
1.86 | CCCNC(=O)C=Cc1ccc([N+](=O)[O-])o1
1.05 | N#CC=Cc1ccc([N+](=O)[O-])o1
0.82 | CN(C)C(=O)C=Cc1ccc([N+](=O)[O-])o1
2.23 | CC(C)CNC(=O)C=Cc1ccc([N+](=O)[O-])o1
2.83 | CCCCOC(=O)C=Cc1ccc([N+](=O)[O-])o1
0.68 | O=C(O)C=Cc1ccc([N+](=O)[O-])o1
3.4 | CCCCCOC(=O)C=Cc1ccc([N+](=O)[O-])o1
3.09 | CCC(C)OC(=O)C=Cc1ccc([N+](=O)[O-])o1 (stereo unspecified)
2.45 | O=[N+]([O-])c1ccc(C=CBr)o1
2.61 | CC(C)(C)CNC(=O)C=Cc1ccc([N+](=O)[O-])o1
1.88 | COC(=O)C(=Cc1ccco1)[N+](=O)[O-]
1.6 | COC(=O)C(=Cc1ccc([N+](=O)[O-])o1)[N+](=O)[O-]
2.67 | CCCOC(=O)C=Cc1ccc([N+](=O)[O-])o1

Structure (SMILES) | logP
O=[N+]([O-])C=Cc1ccc([N+](=O)[O-])o1 | 1.3
